In patent US11236066B2, “Crystalline forms of niraparib tosylate” (Apotex Inc., priority 2019, dated 2022):
Read-outs that look alike come from different tables or passages of the source.

Experiments:
[1] = 900 mL 0.01 N HCl buffer, 50 rpm, sample compressed at 1.5 metric tons for 1 minute
Procedure: Intrinsic dissolution rate (IDR) measurements were performed using a Wood apparatus. Samples were prepared by compressing the sample at 1.5 metric tons for 1 minute. A dissolution medium consisting of 900 mL 0.01 N HCl buffer, and rotation speed of 50 rpm was used for each experiment.

[2] = 1 g sample, agitated in ball mill 2 hrs at 30 Hz, ambient relative humidity 60%
Procedure: Samples (1 g) were initially placed in a small glass dish inside a desiccator for 30 minutes. The initial electric field of each sample was then measured with a JCI 140 Static Monitor (John Chubb Instrumentation, England) wherein the height of the field meter from top of the glass dish was 2.5 cm. […] Each sample was then placed in a 20 mL plastic vial and agitated inside of a ball mill (Retsch Mixer Mill MM 301) for 2 hrs at 30 Hz. After the agitation period, each sample was returned to the glass dish and the electric field was measured. The ambient relative humidity during the experiments was 60%.

[3] = CHMP Assessment Report; cited from earlier work
[4] = cited from earlier work; for Hygroscopicity: description in WO 2018/183354 A1, 4-methylbenzenesulfonate

Compound | Intrinsic Dissolution Rate [1] [mg min^−1 cm^−2] | Electric Field After Agitation [2] [kV] | Biopharmaceutics Classification System (BCS) class [3] | Hygroscopicity ([4]; listed as crystalline Form I) | Hygroscopicity [4] | Weight gain in DVS ([4]; up to 95% relative humidity (RH)) [%]
Cc1ccc(S(=O)(=O)O)cc1.NC(=O)c1cccc2cn(-c3ccc([C@@H]4CCCNC4)cc3)nc12 [Niraparib tosylate crystalline Form I, 2-{4-[(3S)-piperidin-3-yl]phenyl}-2H-indazole 7-carboxamide 4-methylbenzenesulfonate] | 0.1451 | 0.50 | Class II | non-hygroscopic |  | 
Cc1ccc(S(=O)(=O)O)cc1.NC(=O)c1cccc2cn(-c3ccc([C@@H]4CCCNC4)cc3)nc12 [crystalline Form III, 2-{4-[(3S)-piperidin-3-yl]phenyl}-2H-indazole 7-carboxamide 4-methylbenzenesulfonate] |  |  |  |  | very hygroscopic | 15.8
